Measured values as given in the supplement of paper PMC10307832.

How the values were obtained:
Assay in all cases: relative viability (nuclei count vs DMSO), 5 days (fraction); higher = more cells survive
[1] = system: LU99A
Summary of the method: (§1)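 Lung cancer cell lines, seeded in 1536-well plates, were treated the following day by pin tool with a single drug or with five library-drug doses (not always all listed) in √10 steps on top of a fixed anchor-drug dose. Cells were fixed and nuclei stained in one step after 5 days, and nuclei were counted. Relative viability is the nuclei count for treated wells divided by that for vehicle wells, reported as medians of duplicate plates.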

[2] = system: NCI-H1395
Summary of the method: as §1

[3] = system: NCI-H2228
Summary of the method: as §1

[4] = system: UMC-11
Summary of the method: as §1

[5] = system: NCI-H2087
Summary of the method: as §1

[6] = system: RERF-LC-KJ
Summary of the method: as §1

[7] = system: NCI-H1793
Summary of the method: as §1

[8] = system: NCI-H3122
Summary of the method: as §1

[9] = system: LOU-NH91
Summary of the method: as §1

[10] = system: EPLC-272H
Summary of the method: as §1

[11] = system: CAL-12T
Summary of the method: as §1

[12] = system: NCI-H460
Summary of the method: as §1

[13] = system: NCI-H2405
Summary of the method: as §1

[14] = system: NCI-H1651
Summary of the method: as §1

[15] = system: NCI-H1755
Summary of the method: as §1

[16] = system: ChaGo-K-1
Summary of the method: as §1

[17] = system: NCI-H1944
Summary of the method: as §1

[18] = system: NCI-H2170
Summary of the method: as §1

[19] = system: HCC-78
Summary of the method: as §1

[20] = system: NCI-H1734
Summary of the method: as §1

[21] = system: HCC-366
Summary of the method: as §1

[22] = system: PC-3 [JPC-3]
Summary of the method: as §1

[23] = system: LC-2-ad
Summary of the method: as §1

## Clc1ccc(Nc2nnc(Cc3ccncc3)c3ccccc23)cc1 [Vatalanib] + Nc1nc2[nH]cc(CCc3ccc(C(=O)N[C@@H](CCC(=O)O)C(=O)O)cc3)c2c(=O)[nH]1 [Pemetrexed] (partner 0.2 µM)
[1]; first compound 0.04 µM
  relative viability: 0.182
[1]; first compound 0.1265 µM
  relative viability: 0.162
[1]; first compound 0.4 µM
  relative viability: 0.17
[1]; first compound 1.265 µM
  relative viability: 0.189
[1]; first compound 4 µM
  relative viability: 0.162
[2]; first compound 0.04 µM
  relative viability: 0.855
[2]; first compound 0.1265 µM
  relative viability: 0.764
[2]; first compound 0.4 µM
  relative viability: 0.767
[2]; first compound 4 µM
  relative viability: 0.842
[3]; first compound 0.04 µM
  relative viability: 0.352
[3]; first compound 0.1265 µM
  relative viability: 0.304
[3]; first compound 0.4 µM
  relative viability: 0.314
[3]; first compound 1.265 µM
  relative viability: 0.376
[3]; first compound 4 µM
  relative viability: 0.374
[4]; first compound 0.04 µM
  relative viability: 0.849
[4]; first compound 0.1265 µM
  relative viability: 0.808
[4]; first compound 0.4 µM
  relative viability: 0.844
[4]; first compound 1.265 µM
  relative viability: 0.791
[4]; first compound 4 µM
  relative viability: 0.794
[5]; first compound 0.04 µM
  relative viability: 0.666
[5]; first compound 0.1265 µM
  relative viability: 0.659
[5]; first compound 0.4 µM
  relative viability: 0.685
[5]; first compound 1.265 µM
  relative viability: 0.64
[5]; first compound 4 µM
  relative viability: 0.682
[6]; first compound 0.04 µM
  relative viability: 0.489
[6]; first compound 0.1265 µM
  relative viability: 0.476
[6]; first compound 0.4 µM
  relative viability: 0.484
[6]; first compound 1.265 µM
  relative viability: 0.502
[6]; first compound 4 µM
  relative viability: 0.458
[7]; first compound 0.04 µM
  relative viability: 0.789
[7]; first compound 0.1265 µM
  relative viability: 0.817
[7]; first compound 0.4 µM
  relative viability: 1.06
[7]; first compound 1.265 µM
  relative viability: 0.747
[7]; first compound 4 µM
  relative viability: 0.714
[8]; first compound 0.04 µM
  relative viability: 0.195
[8]; first compound 0.1265 µM
  relative viability: 0.19
[8]; first compound 0.4 µM
  relative viability: 0.191
[8]; first compound 1.265 µM
  relative viability: 0.199
[8]; first compound 4 µM
  relative viability: 0.189
[9]; first compound 0.04 µM
  relative viability: 0.417
[9]; first compound 0.1265 µM
  relative viability: 0.378
[9]; first compound 0.4 µM
  relative viability: 0.373
[9]; first compound 1.265 µM
  relative viability: 0.366
[9]; first compound 4 µM
  relative viability: 0.361
[10]; first compound 0.04 µM
  relative viability: 0.349
[10]; first compound 0.1265 µM
  relative viability: 0.334
[10]; first compound 0.4 µM
  relative viability: 0.781
[10]; first compound 1.265 µM
  relative viability: 0.295
[10]; first compound 4 µM
  relative viability: 0.376
[11]; first compound 0.04 µM
  relative viability: 1.15
[11]; first compound 0.1265 µM
  relative viability: 1.15
[11]; first compound 0.4 µM
  relative viability: 1.19
[11]; first compound 1.265 µM
  relative viability: 1.12
[11]; first compound 4 µM
  relative viability: 1.22
[12]; first compound 0.04 µM
  relative viability: 0.0651
[12]; first compound 0.1265 µM
  relative viability: 0.0511
[12]; first compound 0.4 µM
  relative viability: 0.0612
[12]; first compound 1.265 µM
  relative viability: 0.0684
[12]; first compound 4 µM
  relative viability: 0.0605
[13]; first compound 0.04 µM
  relative viability: 1.04
[13]; first compound 0.1265 µM
  relative viability: 1.04
[13]; first compound 0.4 µM
  relative viability: 0.981
[13]; first compound 4 µM
  relative viability: 1.01
[14]; first compound 0.04 µM
  relative viability: 0.512
[14]; first compound 0.1265 µM
  relative viability: 0.558
[14]; first compound 0.4 µM
  relative viability: 0.496
[14]; first compound 1.265 µM
  relative viability: 0.543
[14]; first compound 4 µM
  relative viability: 0.526
[15]; first compound 0.04 µM
  relative viability: 0.4
[15]; first compound 0.1265 µM
  relative viability: 0.504
[15]; first compound 0.4 µM
  relative viability: 0.461
[15]; first compound 1.265 µM
  relative viability: 0.416
[15]; first compound 4 µM
  relative viability: 0.38
[16]; first compound 0.04 µM
  relative viability: 0.263
[16]; first compound 0.1265 µM
  relative viability: 0.294
[16]; first compound 0.4 µM
  relative viability: 0.265
[16]; first compound 1.265 µM
  relative viability: 0.258
[16]; first compound 4 µM
  relative viability: 0.26
[17]; first compound 0.04 µM
  relative viability: 0.544
[17]; first compound 0.1265 µM
  relative viability: 0.669
[17]; first compound 0.4 µM
  relative viability: 0.63
[17]; first compound 1.265 µM
  relative viability: 0.583
[17]; first compound 4 µM
  relative viability: 0.558
[18]; first compound 0.04 µM
  relative viability: 0.328
[18]; first compound 0.1265 µM
  relative viability: 0.289
[18]; first compound 0.4 µM
  relative viability: 0.273
[18]; first compound 1.265 µM
  relative viability: 0.292
[18]; first compound 4 µM
  relative viability: 0.261
[19]; first compound 0.04 µM
  relative viability: 0.924
[19]; first compound 0.1265 µM
  relative viability: 0.981
[19]; first compound 0.4 µM
  relative viability: 0.881
[19]; first compound 1.265 µM
  relative viability: 0.947
[19]; first compound 4 µM
  relative viability: 0.906
[20]; first compound 0.04 µM
  relative viability: 0.401
[20]; first compound 0.1265 µM
  relative viability: 0.42
[20]; first compound 0.4 µM
  relative viability: 0.414
[20]; first compound 1.265 µM
  relative viability: 0.427
[20]; first compound 4 µM
  relative viability: 0.379
[21]; first compound 0.04 µM
  relative viability: 0.148
[21]; first compound 0.1265 µM
  relative viability: 0.133
[21]; first compound 0.4 µM
  relative viability: 0.185
[21]; first compound 1.265 µM
  relative viability: 0.162
[21]; first compound 4 µM
  relative viability: 0.148
[22]; first compound 0.04 µM
  relative viability: 1.02
[22]; first compound 0.1265 µM
  relative viability: 0.943
[22]; first compound 0.4 µM
  relative viability: 0.803
[22]; first compound 1.265 µM
  relative viability: 0.456
[22]; first compound 4 µM
  relative viability: 0.964
[23]; first compound 0.04 µM
  relative viability: 0.267
[23]; first compound 0.1265 µM
  relative viability: 0.27
[23]; first compound 0.4 µM
  relative viability: 0.275
[23]; first compound 1.265 µM
  relative viability: 0.267
[23]; first compound 4 µM
  relative viability: 0.288

## CC(C)Oc1cc(Nc2nc(N[C@@H](C)c3ccc(F)cn3)ncc2Cl)n[nH]1 [AZ23] + CC1(C)CCC(c2ccc(Cl)cc2)=C(CN2CCN(c3ccc(C(=O)NS(=O)(=O)c4ccc(N[C@H](CCN5CCOCC5)CSc5ccccc5)c(S(=O)(=O)C(F)(F)F)c4)cc3)CC2)C1 [Navitoclax] (partner 0.5 µM)
[1]; first compound 0.01 µM
  relative viability: 0.758
[1]; first compound 0.03162 µM
  relative viability: 0.82
[1]; first compound 0.3162 µM
  relative viability: 0.701
[2]; first compound 0.03162 µM
  relative viability: 1.12
[2]; first compound 0.3162 µM
  relative viability: 1.21
[3]; first compound 0.01 µM
  relative viability: 0.848
[3]; first compound 0.03162 µM
  relative viability: 0.963
[3]; first compound 0.3162 µM
  relative viability: 0.709
[4]; first compound 0.01 µM
  relative viability: 0.271
[4]; first compound 0.03162 µM
  relative viability: 0.334
[4]; first compound 0.3162 µM
  relative viability: 0.304
[5]; first compound 0.01 µM
  relative viability: 1.14
[5]; first compound 0.03162 µM
  relative viability: 1.12
[5]; first compound 0.3162 µM
  relative viability: 0.914
[6]; first compound 0.01 µM
  relative viability: 0.719
[6]; first compound 0.03162 µM
  relative viability: 1.15
[6]; first compound 0.3162 µM
  relative viability: 0.879
[7]; first compound 0.01 µM
  relative viability: 0.425
[7]; first compound 0.03162 µM
  relative viability: 0.302
[7]; first compound 0.3162 µM
  relative viability: 0.341
[8]; first compound 0.01 µM
  relative viability: 1.11
[8]; first compound 0.03162 µM
  relative viability: 1.02
[8]; first compound 0.3162 µM
  relative viability: 1.08
[9]; first compound 0.01 µM
  relative viability: 0.619
[9]; first compound 0.03162 µM
  relative viability: 0.744
[9]; first compound 0.3162 µM
  relative viability: 0.746
[10]; first compound 0.01 µM
  relative viability: 1.3
[10]; first compound 0.03162 µM
  relative viability: 1.16
[11]; first compound 0.01 µM
  relative viability: 0.61
[11]; first compound 0.03162 µM
  relative viability: 1.28
[11]; first compound 0.3162 µM
  relative viability: 1.17
[12]; first compound 0.01 µM
  relative viability: 1.12
[12]; first compound 0.03162 µM
  relative viability: 1.41
[12]; first compound 0.3162 µM
  relative viability: 1.44
[13]; first compound 0.01 µM
  relative viability: 0.8
[13]; first compound 0.03162 µM
  relative viability: 0.915
[13]; first compound 0.3162 µM
  relative viability: 0.781
[14]; first compound 0.01 µM
  relative viability: 0.887
[14]; first compound 0.03162 µM
  relative viability: 1.11
[14]; first compound 0.3162 µM
  relative viability: 1.11
[15]; first compound 0.01 µM
  relative viability: 1.17
[15]; first compound 0.03162 µM
  relative viability: 1.11
[15]; first compound 0.3162 µM
  relative viability: 1.03
[16]; first compound 0.01 µM
  relative viability: 0.782
[16]; first compound 0.03162 µM
  relative viability: 1.23
[16]; first compound 0.3162 µM
  relative viability: 0.949
[17]; first compound 0.01 µM
  relative viability: 0.985
[17]; first compound 0.03162 µM
  relative viability: 1.07
[17]; first compound 0.3162 µM
  relative viability: 1.01
[18]; first compound 0.01 µM
  relative viability: 0.59
[18]; first compound 0.03162 µM
  relative viability: 0.687
[18]; first compound 0.3162 µM
  relative viability: 0.589
[19]; first compound 0.01 µM
  relative viability: 0.617
[19]; first compound 0.03162 µM
  relative viability: 0.662
[19]; first compound 0.3162 µM
  relative viability: 0.488
[20]; first compound 0.01 µM
  relative viability: 0.905
[20]; first compound 0.03162 µM
  relative viability: 0.973
[20]; first compound 0.3162 µM
  relative viability: 0.721
[21]; first compound 0.01 µM
  relative viability: 1.3
[21]; first compound 0.03162 µM
  relative viability: 0.998
[21]; first compound 0.3162 µM
  relative viability: 0.883
[22]; first compound 0.01 µM
  relative viability: 0.881
[22]; first compound 0.03162 µM
  relative viability: 0.863
[22]; first compound 0.3162 µM
  relative viability: 0.762
[23]; first compound 0.01 µM
  relative viability: 0.386
[23]; first compound 0.03162 µM
  relative viability: 0.474
[23]; first compound 0.3162 µM
  relative viability: 0.415
